Columns and labels:
[1] = purity of 98% by mass, aqueous solution with a solid concentration of 50% by mass; cited from earlier work
[2] = Preliminary evaluation of digestion and absorption after oral ingestion; assay type: in vivo; details: orally ingested into a human body

## OC[C@H]1O[C@@H]2OC[C@H]3O[C@H](O[C@@H]4[C@@H](O)[C@@H](OC[C@H]5O[C@H](O[C@H]([C@H]2O)[C@@H]1O)[C@H](O)[C@@H](O)[C@@H]5O)O[C@H](CO)[C@H]4O)[C@H](O)[C@@H](O)[C@@H]3O [cyclic tetrasaccharide, cyclo{→6)-α-D-glucopyranosyl-(1→3)-α-D-glucopyranosyl-(1→6)-α-D-glucopyranosyl-(1→3)-α-D-glucopyranosyl-(1→}]
[1]
  precipitation of crystals: easily causes precipitation of crystals
[2]
  digestion and absorption after oral ingestion: reaches the large intestine without being digested or absorbed

— patent publication US12644142B2, “Sugar composition containing cyclic tetrasaccharide, use thereof, and production method therefor” (NAGASE VIITA CO., LTD., priority 2019, dated 2026)
